Consider 24 compounds from PubChem BioAssay (NCI).

Molecules are shown by their SMILES. Several values for one entry are separate records, joined by “and”; a condition that tells them apart may be missing. Equal values may be shown once.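 How tested: cells in 96-well plates exposed to compound for 48 hours at five concentrations. GI50 is the concentration that inhibits growth by half. Definition used: TGI = concentration required for complete inhibition of growth.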

Experiment in all cases: growth of human tumour cells (NCI), 48 h
Experiment [1] relates to KM12 colon.
Experiment [2] relates to M19-MEL melanoma.
For experiment [3], the system named is M14 melanoma.
For experiment [4], the system named is OVCAR-4 ovarian.
The subject of experiment [5] is DMS 273 small cell lung.
For experiment [6], the system named is SNB-78 CNS.
In experiment [7] the test system is SNB-19 CNS.
Experiment [8] deals with NCI/ADR-RES ovarian.
The test system of experiment [9] is MDA-MB-435.
Experiment [10] deals with MDA-MB-231 breast.
The test system of experiment [11] is HS 578T breast.

With `O=C(O)c1ccc2c(c1)C(=O)N(c1ccc(S(=O)(=O)c3ccc(N4C(=O)c5ccc(C(=O)O)cc5C4=O)cc3)cc1)C2=O`, the TGI in experiment [1], in experiment [2], in experiment [3], in experiment [4], in experiment [5] and in experiment [6] was > 100 µM throughout. Further, the TGI in experiment [7] was > 100 µM.
As to `CC1(C)c2ccccc2N2C(c3ccccc3)=NOC21C` (centres undefined), the TGI in experiment [1], in experiment [2], in [3], in experiment [4], in experiment [5] and in [6] was > 100 µM each time. Besides, the TGI in experiment [7] was > 100 µM.
On to `C=C1C(=O)O[C@H](c2ccoc2)C[C@@H]1[C@@]1(C)CCCC2(C)C(=O)OCC21` (some centres undefined), for which the TGI in experiment [1], in experiment [2], in experiment [3], in [4], in [5] and in [6] was > 100 µM in each case. Further, the TGI in [7] was > 100 µM.
For the compound `CC1OC(n2cc(C(F)(F)F)c(=O)[nH]c2=O)C=CC1=O` (centres undefined), the TGI in experiment [1] came to 38.1 µM; in experiment [2] it was 43.3 µM; in experiment [3], 59.8 µM; in experiment [4] it was 26.8 µM; in experiment [6], 31.5 µM; in [7], 30.6 µM.
As for `C/C=C/C(=O)Oc1cccc2cccnc12`, the TGI in [1] is 42.4 µM; in experiment [2], 38.6 µM; in experiment [3], 12 µM; in experiment [4] it was 22 µM; in experiment [5], 46.9 µM; in experiment [6] it was > 100 µM. The TGI in experiment [7] was > 100 µM.
On to `CCOC(=O)C1=C(C)NC(=O)NC1c1ccc(OC)cc1OC` (centres undefined), for which the TGI in experiment [1], in experiment [2], in experiment [3], in [5], in experiment [6] and in experiment [7] was > 100 µM throughout.
Turning to `Nc1cccc2c1-c1c(cccc1[N+](=O)[O-])C2=O`, the TGI in [1], in [2], in experiment [3], in experiment [4], in experiment [5] and in [6] was > 100 µM each time. Besides, the TGI in [7] is > 100 µM.
As for `COc1cccc2c1C(=O)c1c(O)c3c(c(O)c1C2=O)C[C@@](O)(C(=O)CO)CC3OC1CC(N)C(OC2CCCCO2)C(C)O1` (some centres undefined), the GI50 in experiment [1] was 1.19 µM; in experiment [3], 0.0529 µM; in [4], 1.46 µM; in experiment [7], 0.033 µM. In addition, the TGI in experiment [1] was 0.583 µM and 3.09 µM; in experiment [8], 4.06 µM; in [9] it was 0.229 µM; in experiment [10], 0.273 µM; in experiment [11], 1.11 µM; in experiment [5], 7.18 µM. Further, the TGI in experiment [6] is 26.5 µM; in experiment [7] it was 2.54 µM and 3.06 µM.
Consider `N#C/C(=C\c1cc(O)c(O)c(O)c1)C(N)=O`, for which the TGI in experiment [1], in experiment [2], in [3], in [8], in experiment [9] and in experiment [10] was > 100 µM in each case. Besides, the TGI in experiment [11], in experiment [4], in experiment [5], in experiment [6] and in experiment [7] was > 100 µM each time.
As for `CNC(=O)ON(C(C)=O)C(=O)NC`, the TGI in experiment [1] came to 166 µM; in [2] it was 401 µM; in experiment [3], 41 µM; in experiment [8], 266 µM; in experiment [9], 50.2 µM; in [10] it was 78.4 µM. Also, the TGI is 216 µM in experiment [11]; 142 µM in experiment [4]; 241 µM in experiment [5]; 384 µM in experiment [6]; 359 µM in experiment [7]. The GI50 in experiment [3] is > 83.2 µM; in [10], 28.8 µM; in experiment [11] it was 49.9 µM.
`Cc1ccccc1NC(=O)/C(=N\NC(N)=S)C(C#N)c1ccccc1` (centres undefined): the TGI in [1], in experiment [2], in experiment [3], in experiment [4], in [5] and in experiment [6] was > 100 µM throughout. The TGI in experiment [7] was > 100 µM.
For the compound `Cn1[nH]cc2ccc3nc4ccccc4c(=O)c3c21`, the TGI in experiment [1] was > 100 µM; in [2], 46.8 µM; in experiment [3] it was > 100 µM; in [4] it was 75.8 µM; in experiment [5] it was > 100 µM; in experiment [6], > 83.9 µM. Besides, the TGI in experiment [7] was > 100 µM.
Regarding `COC(=O)c1c(O)ccc(O)c1C(C(C)=O)C(C)=O`, the TGI in experiment [1], in experiment [2], in experiment [3], in [4], in experiment [5] and in experiment [6] was > 100 µM in each case. Besides, in [7], the TGI is > 100 µM.
As for `Cc1cccc(NC(=O)C(=O)C(C2OC(=O)c3ccccc32)[N+](=O)[O-])c1C` (centres undefined), the TGI in experiment [1] is 26.9 µM; in experiment [2], 3.91 µM; in experiment [3] it was 26.7 µM; in experiment [4], 25.8 µM; in experiment [5], 10.3 µM; in experiment [6], > 100 µM. The compound further yielded a TGI in [7] of 35.1 µM.
Consider `O=C(/C=C/c1ccc(Cl)c(Cl)c1)c1ccccc1Cl`, for which the TGI was determined as 20.9 µM in [1]; 17.2 µM in experiment [2]; 12.7 µM in experiment [3]; 27.9 µM in experiment [4]; 14.5 µM in [5]; 32.3 µM in experiment [6]. Also, the TGI in [7] turned out to be 25.1 µM.
Consider `Cc1ccc2c(c1)-c1c3c(nn1C)-c1ccccc1SC3O2` (centres undefined), for which the TGI in experiment [1], in experiment [2], in [5] and in experiment [6] was > 100 µM throughout.
As for `C/C=C(\N=C=S)C(=O)OC1C(COC(C)=O)OC([C@]2(O)CC(=O)C(=N)C(C(=O)O)=C2O)C(O)C1OC1CC(OC)C(O)([C@@H](C)OC(=O)[C@@H](C)CC)C(C)O1` (some centres undefined), the TGI is 19.9 µM in experiment [1]; 6.24 µM in experiment [2]; 30.9 µM in experiment [3]; > 100 µM in experiment [8]; 35.7 µM in [9]; 51.7 µM in experiment [10]. Also, the TGI was > 96.1 µM in experiment [11]; 19.4 µM in experiment [4]; 32.1 µM in [5]; 26.4 µM in [6]; 31.5 µM in [7].
As to `C[P+]1(Cc2ccccc2)CCCC1`, the TGI in experiment [1], in [2], in experiment [3], in experiment [5], in experiment [6] and in [7] was > 100 µM in each case.
For the compound `CN(C)NC1=C([N+](=O)[O-])C=NN(c2ccccc2)C1`, the TGI in [1] was determined as 11.9 µM; in [2], 3.23 µM; in experiment [3] it was 3.23 µM; in [4], 3.22 µM; in experiment [5] it was 3.18 µM; in [6], 4.3 µM. Besides, in [7], the TGI worked out at 4.98 µM.
As to `Brc1ccccc2cc(-c3ccccc3)nc1-2`, the TGI was 32.8 µM in [1]; 28.3 µM in [3]; 44.6 µM in experiment [8]; > 61 µM in [9]; > 42.3 µM in experiment [10]; > 100 µM in experiment [11]. The TGI was determined as 19.8 µM in [4], 16.4 µM in experiment [5], 6.91 µM in [6] and 40.7 µM in [7].
Turning to `c1ccc(C2=NOC3C4CCC(C4)C23)cc1` (centres undefined), the TGI in experiment [1], in experiment [2], in experiment [3], in experiment [4], in experiment [5] and in [6] was > 100 µM throughout. Further, in experiment [7], the TGI is > 100 µM.
`CC(=O)OCC1OC(n2cccnc2=O)C(OC(C)=O)C1OC(C)=O` (centres undefined): the TGI in [1], in experiment [2], in [3], in experiment [4], in [5] and in [6] was > 100 µM each time. In experiment [7], the TGI is > 100 µM.
Consider `CC1(C)C(=O)OC(n2cc(F)c(=O)[nH]c2=O)C1=O` (centres undefined), for which the TGI in experiment [1], in experiment [2], in experiment [3], in experiment [4], in [6] and in experiment [7] was > 100 µM in each case.
On to `CCOC(=O)c1cc(=O)n(C)c(=O)n1C`, for which the TGI in experiment [1], in [2], in [3], in experiment [4], in experiment [5] and in experiment [6] was > 100 µM each time. In addition, the TGI in [7] is > 100 µM.
